Reference: ChEMBL document CHEMBL1201862, “PubChem BioAssay data set” (2004)
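Step 1: Grow cells in 96-well plates. Step 2: Expose to compound for 48 hours at 5 concentrations. Step 3: Interpolate endpoints linearly; if unreached, use highest concentration. GI50 marks 50% less growth.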 Calls of active or inactive are those of the source. Rule as the data show it: active = GI50 up to about 1.1 µM and inactive = higher.

Assays:
Assay in all cases: NCI tumour cell line growth inhibition, 48 h
TK-10 = system: TK-10
K562 = system: K562
OVCAR-5 = system: OVCAR-5
RXF 393 = system: RXF 393
SNB-19 = system: SNB-19
KM12 = system: KM12
SK-MEL-2 = system: SK-MEL-2
HT-29 = system: HT-29
786-0 = system: 786-0
LOX IMVI = system: LOX IMVI
SF-295 = system: SF-295
SF-539 = system: SF-539
CCRF-CEM = system: CCRF-CEM
NCI-H226 = system: NCI-H226
EKVX = system: EKVX
A549 = system: A549
UO-31 = system: UO-31
NCI-H460 = system: NCI-H460
DU-145 = system: DU-145

Row | Compound | GI50 (TK-10) | GI50 (K562) | GI50 (OVCAR-5) | GI50 (RXF 393) | GI50 (SNB-19) | GI50 (KM12) | GI50 (SK-MEL-2) | GI50 (HT-29) | GI50 (786-0) | GI50 (LOX IMVI) | GI50 (SF-295) | GI50 (SF-539) | GI50 (CCRF-CEM) | GI50 (NCI-H226) | GI50 (EKVX) | GI50 (A549) | GI50 (UO-31) | GI50 (NCI-H460) | GI50 (DU-145)
1 | Cn1c(=O)n(C2(C)C[Se]C2)c2ccccc21 | > 100 µM (inactive) | > 100 µM (inactive) | > 100 µM (inactive) | > 100 µM (inactive) | > 100 µM (inactive) | > 100 µM (inactive) | > 100 µM (inactive) | > 100 µM (inactive) | > 100 µM (inactive) | > 100 µM (inactive) | > 100 µM (inactive) | > 100 µM (inactive) | > 100 µM (inactive) | > 100 µM (inactive) | > 100 µM (inactive) | > 100 µM (inactive) | > 100 µM (inactive) | > 100 µM (inactive) | 
2 | N#C/C(=C\c1cc(F)cc(F)c1)c1ccccn1 | 30.8 µM (inactive) | 15.5 µM (inactive) | 28.8 µM (inactive) | 26.7 µM (inactive) | 45.6 µM (inactive) | 22.1 µM (inactive) | 22.9 µM (inactive) | 34.4 µM (inactive) | > 10 µM (inactive) |  | 16.3 µM (inactive) | 19.5 µM (inactive) | 18.1 µM (inactive) | 17.5 µM (inactive) | 13 µM (inactive) | 28.6 µM (inactive) | 34.7 µM (inactive) | 22.7 µM (inactive) | 36.9 µM (inactive)
3 | Cc1nc2c(s/c(=N\N)n2-c2ccccc2)c(=O)[nH]1 | > 100 µM (inactive) | > 100 µM (inactive) | > 100 µM (inactive) | > 100 µM (inactive) | > 100 µM (inactive) | > 100 µM (inactive) | > 100 µM (inactive) | > 100 µM (inactive) | > 100 µM (inactive) | > 100 µM (inactive) | > 100 µM (inactive) | > 100 µM (inactive) | > 100 µM (inactive) | > 100 µM (inactive) | > 100 µM (inactive) | > 100 µM (inactive) | > 100 µM (inactive) | > 100 µM (inactive) | 
4 | O=C1OC2C(O)COC2(O)C1(O)Cc1c[nH]c2ccccc12.O=C1OC2C(O)COC2(OCc2c[nH]c3ccccc23)C1O (stereo not drawn) | > 100 µM (inactive) | > 100 µM (inactive) | > 100 µM (inactive) | > 100 µM (inactive) | > 100 µM (inactive) | > 100 µM (inactive) | > 100 µM (inactive) | > 100 µM (inactive) | > 100 µM (inactive) | > 100 µM (inactive) | > 100 µM (inactive) | > 100 µM (inactive) | > 100 µM (inactive) | > 100 µM (inactive) | > 100 µM (inactive) | > 100 µM (inactive) | > 100 µM (inactive) | > 100 µM (inactive) | 
5 | O=C(NO)C(=O)Nc1ccc(Cl)cc1[N+](=O)[O-] | > 100 µM (inactive) | > 100 µM (inactive) | > 100 µM (inactive) | > 100 µM (inactive) | > 100 µM (inactive) | > 100 µM (inactive) | > 100 µM (inactive) | > 100 µM (inactive) | > 100 µM (inactive) | 51.9 µM (inactive) | > 100 µM (inactive) | > 100 µM (inactive) | > 100 µM (inactive) | > 100 µM (inactive) | 33.9 µM (inactive) | > 100 µM (inactive) | > 100 µM (inactive) | > 100 µM (inactive) | 
6 | CCOC(=O)/C=C/c1nc(C#N)c(N)o1 | > 100 µM (inactive) | > 100 µM (inactive) | > 100 µM (inactive) | 1.46 µM (inactive) | > 100 µM (inactive) | > 100 µM (inactive) | > 100 µM (inactive) | > 100 µM (inactive) | > 100 µM (inactive) | > 100 µM (inactive) |  |  | > 100 µM (inactive) |  | > 100 µM (inactive) | > 100 µM (inactive) | 53.6 µM (inactive) |  | > 100 µM (inactive)
7 | CCc1cccc(C)c1NC(=O)CC1C(=O)Nc2ccccc2S1(=O)=O (stereo not drawn) | 29.3 µM (inactive) | 2.92 µM (inactive) | 23.6 µM (inactive) | 15.1 µM (inactive) | 27.5 µM (inactive) |  | 21.1 µM (inactive) | 19.7 µM (inactive) | 15.7 µM (inactive) | 13.2 µM (inactive) | 26.2 µM (inactive) | 11 µM (inactive) | 13.7 µM (inactive) | 33 µM (inactive) | 15.5 µM (inactive) | 18.6 µM (inactive) | 13.5 µM (inactive) | 13.1 µM (inactive) | 
8 | CCOc1ccc(NC(=O)C(=O)CC(=O)c2c[n+]([O-])c3cc(C)c(C)cc3[n+]2[O-])cc1 | > 100 µM (inactive) | > 100 µM (inactive) | > 100 µM (inactive) | > 100 µM (inactive) | > 100 µM (inactive) | > 100 µM (inactive) | > 100 µM (inactive) | > 100 µM (inactive) | > 100 µM (inactive) | > 100 µM (inactive) | > 100 µM (inactive) | > 100 µM (inactive) | > 100 µM (inactive) | > 100 µM (inactive) | 90.8 µM (inactive) | > 100 µM (inactive) | > 100 µM (inactive) | > 100 µM (inactive) | 
9 | NS(=O)(=O)c1ccc(-n2c(-c3cccs3)nc3ccc(I)cc3c2=O)cc1 | 25.4 µM (inactive) |  | 24.6 µM (inactive) | 28.2 µM (inactive) | 40.4 µM (inactive) | 24.1 µM (inactive) |  | 31.7 µM (inactive) | 28.7 µM (inactive) | 18.4 µM (inactive) | 25.4 µM (inactive) |  |  | 27.4 µM (inactive) | 25.1 µM (inactive) | 18.7 µM (inactive) | 20 µM (inactive) | 25.5 µM (inactive) | 18.8 µM (inactive)
10 | O=c1c2ccccc2nc(-c2ccccc2)n1NC(=S)Nc1ccccc1 | > 100 µM (inactive) | > 100 µM (inactive) | > 100 µM (inactive) | > 100 µM (inactive) |  | > 100 µM (inactive) | > 100 µM (inactive) | > 100 µM (inactive) | > 100 µM (inactive) | 91 µM (inactive) | > 100 µM (inactive) | > 100 µM (inactive) | > 100 µM (inactive) | > 100 µM (inactive) |  | > 100 µM (inactive) | 81.7 µM (inactive) | > 100 µM (inactive) | 
11 | COC1=C(N)C(=O)c2nc(C)ccc2C1=O | 8.2 µM (inactive) |  | 1.98 µM (inactive) | 1.67 µM (inactive) | 1.91 µM (inactive) | 1.87 µM (inactive) | 1.74 µM (inactive) | 1.98 µM (inactive) | 1.98 µM (inactive) | 0.826 µM (active) | 1.79 µM (inactive) | 1.91 µM (inactive) | 17.2 µM (inactive) | 1.04 µM (active) | 2.77 µM (inactive) | 2.18 µM (inactive) | 2.17 µM (inactive) | 2.08 µM (inactive) | 
12 | CC1=CC2=C(C)C3(CC3)[C@@](C)(O)C(=O)C2=C1 | 0.329 µM (active) | > 1 µM (active) | 0.239 µM (active) | 0.149 µM (active) | 0.243 µM (active) | 0.355 µM (active) | 0.191 µM (active) | 0.227 µM (active) | 0.217 µM (active) | 0.174 µM (active) | 0.223 µM (active) | 0.219 µM (active) | > 1 µM (active) | 0.231 µM (active) | 0.535 µM (active) | 0.314 µM (active) | 0.19 µM (active) | 0.0783 µM (active) | 
13 | COc1cc(/C=C(\C)c2ccc3c(c2)OCO3)cc(OC)c1OC | 47 µM (inactive) | 10.4 µM (inactive) | 55.3 µM (inactive) | 34.1 µM (inactive) | 50.7 µM (inactive) | 44.5 µM (inactive) | 23.4 µM (inactive) | 25.7 µM (inactive) | 21.3 µM (inactive) | 16 µM (inactive) | 25.2 µM (inactive) | 14.1 µM (inactive) | 19.8 µM (inactive) | 33.7 µM (inactive) | 10.4 µM (inactive) | 18.5 µM (inactive) | 27.3 µM (inactive) | 34.2 µM (inactive) | 
14 | Cc1cc2oc(-c3ccccc3)c(C)c(=O)c2c2c1OC(C)(C)S2 | > 100 µM (inactive) | 30.9 µM (inactive) | > 100 µM (inactive) | 70.3 µM (inactive) | > 100 µM (inactive) | 43.7 µM (inactive) | > 100 µM (inactive) | 34.2 µM (inactive) | > 100 µM (inactive) | > 100 µM (inactive) | > 100 µM (inactive) | > 100 µM (inactive) | 62.8 µM (inactive) | > 100 µM (inactive) | > 100 µM (inactive) | 90.2 µM (inactive) | > 100 µM (inactive) | 92.7 µM (inactive) | 
15 | CCOC(=O)C(C(=O)OCC)P(=S)(S)c1ccccc1 (stereo not drawn) | > 100 µM (inactive) | > 100 µM (inactive) | > 100 µM (inactive) | > 100 µM (inactive) | > 100 µM (inactive) | > 100 µM (inactive) | > 100 µM (inactive) | > 100 µM (inactive) | > 100 µM (inactive) | > 100 µM (inactive) | > 100 µM (inactive) | > 100 µM (inactive) | > 100 µM (inactive) | > 100 µM (inactive) | > 100 µM (inactive) | > 100 µM (inactive) | > 100 µM (inactive) | > 100 µM (inactive) | 
16 | Cc1cc(C)n(C(=O)C(C)Sc2nnc(SC(C)C(=O)n3nc(C)cc3C)s2)n1 (stereo not drawn) | > 100 µM (inactive) | > 100 µM (inactive) | > 100 µM (inactive) | > 100 µM (inactive) | > 100 µM (inactive) | > 100 µM (inactive) | > 100 µM (inactive) | > 100 µM (inactive) | > 100 µM (inactive) | > 100 µM (inactive) | > 100 µM (inactive) |  | > 100 µM (inactive) | > 100 µM (inactive) | > 100 µM (inactive) | > 100 µM (inactive) | > 100 µM (inactive) | > 100 µM (inactive) | > 100 µM (inactive)
